What all share (assay): NCI anticancer screen, dose series, 48 h
Test [1] relates to SNB-19.
Test [2] concerns HOP-62.
The test system of test [3] is COLO 205.
Test [4] has as its system SF-268.
Test [5] relates to HCT-15.
Test [6] concerns UO-31.
Test [7] deals with OVCAR-4.
The test system of test [8] is OVCAR-3.
Test [9] deals with SR.
In test [10] the test system is SK-MEL-28.
Test [11] concerns MOLT-4.
Test [12] concerns IGROV-1.
Test [13] relates to KM-20L2.
In test [14] the test system is RPMI-8226.
Test [15] deals with OVCAR-8.
The subject of test [16] is Malme-3M.
Test [17] concerns HCC 2998.
Test [18] concerns U-251.
For test [19], the system named is HCT-116.

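The compound was tested at five concentrations on cells cultured in 96-well plates, with a 48-hour exposure period. GI50: concentration for 50% inhibition of growth.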 Calls of active or inactive are those of the source. Cut-off read from the data, not from the text of the source: active = GI50 up to about 1.1 µM and inactive = higher.

As for `CNC(=O)CN(CC(N)=O)C(N)=O`, the GI50 is > 100 µM (inactive) in [1]; > 100 µM (inactive) in test [2]; > 100 µM (inactive) in [3]; > 100 µM (inactive) in test [4]; over 100 µM in test [5]; > 100 µM (inactive) in [6]. For the same molecule, the GI50 in test [7], in test [8], in [9], in [10], in [11] and in test [12] was > 100 µM (inactive) in each case. The GI50 in test [13], in test [14], in [15], in [16], in test [17] and in test [18] was > 100 µM (inactive) each time.

For the molecule `CCOC(=O)C12CN(C34CC5CC(CC(C5)C3)C4)CC(C(=O)OCC)(C1=O)C(c1ccccc1)OC2c1ccccc1` (stereo unspecified), the GI50 in [1] is > 100 µM (inactive); in test [2], > 100 µM (inactive); in test [3], > 100 µM (inactive); in test [4] it was > 100 µM (inactive); in test [5] it was over 100 µM; in test [6] it was > 100 µM (inactive). Further, the GI50 in test [7] was 23 µM (inactive); in test [8], > 100 µM (inactive); in test [10], > 100 µM (inactive); in [11] it was 35.6 µM (inactive); in [12], > 100 µM (inactive); in test [13], > 100 µM (inactive). Further, the GI50 was > 10 µM (inactive) in [19]; 16.5 µM (inactive) in [14]; > 100 µM (inactive) in [15]; > 100 µM (inactive) in test [16]; > 100 µM (inactive) in test [17]; > 100 µM (inactive) in test [18].

`CN(C)CCCN1CCc2c([nH]c3ccccc23)C1c1cccnc1` (stereo unspecified): the GI50 is > 100 µM (inactive) in test [1]; > 100 µM (inactive) in [2]; > 100 µM (inactive) in test [3]; over 100 µM in [5]; > 100 µM (inactive) in [6]; > 100 µM (inactive) in test [7]. The GI50 was > 100 µM (inactive) in [8]; > 100 µM (inactive) in test [9]; 80 µM (inactive) in test [10]; > 100 µM (inactive) in test [11]; > 100 µM (inactive) in test [12]; > 100 µM (inactive) in test [13]. Moreover, the GI50 in test [19], in [14], in test [15], in test [16], in [17] and in test [18] was > 100 µM (inactive) in each case.

Consider `Nc1n/c(=N\c2ccccc2)ss1`, for which the GI50 in test [1], in test [2], in [3], in [4], in test [6] and in test [7] was > 100 µM (inactive) throughout. Moreover, the GI50 in test [8], in test [9], in [10], in test [11], in [12] and in test [13] was > 100 µM (inactive) in each case. Also, the GI50 in test [19], in [14], in [15], in test [16], in test [17] and in test [18] was > 100 µM (inactive) throughout.

Take `NS(=O)(=O)c1ccccc1C(=O)N/N=C(\c1nc2ccc([N+](=O)[O-])cc2[nH]c1=O)C(O)c1ccc([N+](=O)[O-])cc1` (stereo unspecified): the GI50 is > 100 µM (inactive) in test [1]; > 100 µM (inactive) in [3]; > 100 µM (inactive) in [4]; 24.2 µM in [5]; 63.7 µM (inactive) in test [6]; > 100 µM (inactive) in test [7]. Also, the GI50 is > 100 µM (inactive) in test [8]; > 100 µM (inactive) in test [9]; > 100 µM (inactive) in test [10]; > 100 µM (inactive) in [11]; > 100 µM (inactive) in test [12]; 46.2 µM (inactive) in test [13]. In addition, the GI50 is 84.1 µM (inactive) in [19]; 58.5 µM (inactive) in test [14]; > 100 µM (inactive) in [15]; > 100 µM (inactive) in test [16]; > 100 µM (inactive) in [17]; > 100 µM (inactive) in test [18].

As for `Cc1ccc(NC(=O)OCC(COc2ccc(Cl)cc2Cl)OC(=O)Nc2ccc(C)cc2)cc1` (stereo unspecified), the GI50 was 47.6 µM (inactive) in test [1]; > 100 µM (inactive) in test [2]; > 100 µM (inactive) in [3]; > 100 µM (inactive) in [4]; over 100 µM in [5]; 66.2 µM (inactive) in [6]. In addition, the GI50 is 33.2 µM (inactive) in test [7]; 80.2 µM (inactive) in [8]; > 100 µM (inactive) in test [10]; > 100 µM (inactive) in [12]; > 100 µM (inactive) in test [13]; > 100 µM (inactive) in test [19]. In addition, the GI50 in [14] was > 100 µM (inactive); in [15] it was 12.5 µM (inactive); in [16], > 100 µM (inactive); in test [17], > 100 µM (inactive); in test [18], 34.8 µM (inactive).

For `COc1ccccc1NC(=O)CC(=O)n1nc(C)c(/N=N/c2ccccc2C(=O)O)c1C`, the GI50 in test [1] was > 100 µM (inactive); in test [2], 85.9 µM (inactive); in test [3], > 100 µM (inactive); in test [4] it was > 100 µM (inactive); in test [5], over 100 µM; in [6], 48.6 µM (inactive). In addition, the GI50 in test [7] is > 100 µM (inactive); in test [8], 73.1 µM (inactive); in test [10] it was > 100 µM (inactive); in [11], > 100 µM (inactive); in [12] it was > 100 µM (inactive); in test [13], > 100 µM (inactive). The GI50 in test [19] was > 100 µM (inactive); in [14], > 100 µM (inactive); in test [15], > 100 µM (inactive); in [16], > 100 µM (inactive); in test [17], > 100 µM (inactive); in test [18], 95.7 µM (inactive).

For the molecule `Cc1ccc(/C=N/NS(=O)(=O)c2ccccc2)cc1C`, the GI50 is > 100 µM (inactive) in [2]; > 100 µM (inactive) in test [3]; > 100 µM (inactive) in [4]; over 100 µM in [5]; > 100 µM (inactive) in test [6]; > 100 µM (inactive) in test [7]. Besides, the GI50 in test [8] is > 100 µM (inactive); in test [9], 86.7 µM (inactive); in test [10], > 100 µM (inactive); in test [11] it was > 100 µM (inactive); in [12], 51.5 µM (inactive); in [13], > 100 µM (inactive). The GI50 in test [19] was 76 µM (inactive); in test [14], > 100 µM (inactive); in test [15], > 100 µM (inactive); in test [16], > 100 µM (inactive); in test [17] it was > 100 µM (inactive); in [18], > 100 µM (inactive).

`N#CC(C(=O)CCC(=O)Nc1ccc(Cl)c(Cl)c1)c1ccc(Cl)cc1` (stereo unspecified): the GI50 in test [1] is > 100 µM (inactive); in test [2] it was > 100 µM (inactive); in test [4] it was > 100 µM (inactive); in test [5] it was 17.1 µM; in test [6] it was 75.2 µM (inactive); in [7], > 100 µM (inactive). Moreover, the GI50 in test [8] was > 100 µM (inactive); in test [10], > 100 µM (inactive); in test [11], 53.7 µM (inactive); in test [12], 80 µM (inactive); in test [13] it was 15 µM (inactive); in test [19], > 100 µM (inactive). In addition, the GI50 was 48.2 µM (inactive) in test [14]; > 100 µM (inactive) in test [15]; > 100 µM (inactive) in test [16]; > 100 µM (inactive) in test [17]; > 100 µM (inactive) in test [18].

With `O=C(Nc1ccccc1-c1nn(C(=S)Nc2ccccc2)c(=S)n(C(=S)Nc2ccccc2)c1=O)C(F)(F)F`, the GI50 was 35.4 µM (inactive) in test [1]; 29.3 µM (inactive) in test [2]; 17.5 µM (inactive) in [3]; 26.5 µM (inactive) in test [4]; 20.1 µM in [5]; 11.9 µM (inactive) in test [6]. The GI50 in [7] is 17.1 µM (inactive); in test [8] it was 21.6 µM (inactive); in test [10], 27.6 µM (inactive); in [11], 7.85 µM (inactive); in test [12], 21.5 µM (inactive); in test [13], 36.2 µM (inactive). For the same molecule, the GI50 in test [19] was 16.6 µM (inactive); in [14], 11.1 µM (inactive); in test [15], 23.9 µM (inactive); in test [16], 30.5 µM (inactive); in [17], 25.3 µM (inactive); in test [18], 25.6 µM (inactive).

With `O=C1C2CCC(C2)C12CC1(c3ccccc3)C(=O)c3ccccc3N1O2` (stereo unspecified), the GI50 was > 100 µM (inactive) in test [1]; > 100 µM (inactive) in [2]; > 100 µM (inactive) in [3]; > 100 µM (inactive) in test [4]; over 100 µM in test [5]; > 100 µM (inactive) in test [6]. In addition, the GI50 in test [7] was 75.5 µM (inactive); in [9], 67.5 µM (inactive); in test [10] it was > 100 µM (inactive); in [11] it was 42.6 µM (inactive); in [12], > 100 µM (inactive); in test [13], > 100 µM (inactive). Besides, the GI50 in test [19] is > 100 µM (inactive); in [14], 58.9 µM (inactive); in test [15], > 100 µM (inactive); in test [16], > 100 µM (inactive); in test [17], > 100 µM (inactive); in [18], > 100 µM (inactive).
